Results: patent publication US20230286956A1 (DUKSUNG WOMEN'S UNIVERSITY INDUSTRY-ACADEMIC COOPERATION …, priority 2020, published 2023)

Tested on: wild-type red mold strain GZ3639
Test: Inhibition of spore germination / reactive oxygen species generation through NOX enzyme inhibition in red mold
Type: cell-based
Settings: 24 h, read-out: IC50 (µM), compound concentration at which the spore germination inhibition rate was 50%
Procedure: When NADPH oxidase (NOX), which is involved in the generation of reactive oxygen species in red mold, is inhibited, normal mycelial growth is inhibited, abnormal form of monocyclic conidia is formed, and germination is inhibited. The abnormal phenotype caused by the reduction of reactive oxygen species in red mold can be easily observed under an optical microscope. Through this, the ability to inhibit generation of reactive oxygen species through NOX inhibition was evaluated.
Specifically, for the evaluation of compound activity, 0.1 mM of the compound was added to a minimum medium (MM20) spore suspension diluted to ⅕. Spores ([…]) of wild-type red mold strain GZ3639 were inoculated into the medium and cultured at 25° C. for 24 h, followed by microscopic observation. Compounds having a germination inhibition rate and microcycle conidiation to be 50% or more of those in normal germination were selected, and their activities were evaluated at concentrations of 50 µM, 25 µM, and 10 µM. At this time, the activity of substances having a germination inhibition rate of 95% at 10 µM was further evaluated at concentrations of 5 µM, 1 µM, 0.5 µM, and 0.1 µM. Based on the result of this evaluation, the compound concentration (inhibitory concentration 50%, IC50) at which the spore germination inhibition rate was 50% was determined.

SMILES | IC50
CN1C(=[Se])N(c2ccccc2)C(=O)/C1=C\c1ccc(N(C)C)cc1 [Compound 3, 5-(4-(dimethylamino)benzylidene)-1-methyl-3-phenyl-2-selenoxoimidazolidine-4-on] | 26 µM
CN1C(=[Se])N(c2ccccc2)C(=O)/C1=C\c1ccc(N2CCCC2)cc1 [Compound 7, 1-methyl-3-phenyl-5-(4-pyrrolidine-1-yl)benzylidene-2-selenoxoimidazolidine-4-on] | 16 µM
CN1C(=[Se])N(c2ccccc2)C(=O)/C1=C\c1cccc(O)c1 [Compound 8, 5-(3-hydroxybenzylidene)-1-methyl-3-phenyl-2-selenoxoimidazolidine-4-on] | 41 µM
CN1C(=[Se])N(c2ccccc2)C(=O)/C1=C\c1cccnc1 [Compound 9, 1-methyl-3-phenyl-5-(pyridine-3-ylmethylene)-2-selenoxoimidazolidine-4-on] | 37 µM
Cc1ccc(N2C(=O)/C(=C\c3cccc(O)c3O)N(C)C2=[Se])cc1 [Compound 11, 5-(2,3-dihydroxybenzylidene)-1-methyl-3-(4-tolyl)-2-selenoxoimidazolidine-4-on] | 46 µM
Cc1ccc(N2C(=O)/C(=C\c3ccc(Br)cc3)N(C)C2=[Se])cc1 [Compound 16, 5-(4-bromobenzylidene)-1-methyl-2-selenoxo-3-(4-tolyl)imidazolidine-4-on] | 46 µM
Cc1ccc(N2C(=O)/C(=C\c3ccc(N4CCCC4)cc3)N(C)C2=[Se])cc1 [Compound 17, 1-methyl-5-(4-pyrrolidine-1-yl)benzylidene-2-selenoxo-3-(4-tolyl)imidazolidine-4-on] | 11 µM
Cc1ccc(N2C(=O)/C(=C\c3ccc(O)cc3)N(C)C2=[Se])cc1 [Compound 18, 5-(4-hydroxybenzylidene)-1-methyl-2-selenoxo-3-(4-tolyl)imidazolidine-4-on] | 13 µM
Cc1ccc(N2C(=O)/C(=C\c3cccnc3)N(C)C2=[Se])cc1 [Compound 19, 1-methyl-5-(pyridine-3-ylmethylene)-2-selenoxo-3-(4-tolyl)imidazolidine-4-on] | 41 µM
Cc1ccc(N2C(=O)/C(=C\c3ccc(NCCN4CCOCC4)cc3)N(C)C2=[Se])cc1 [Compound 23, 1-methyl-5-(4-((2-morpholinoethyl)amino)benzylidene)-2-selenoxo-3-(4-tolyl)imidazolidine-4-on] | 5.2 µM
CCc1ccc(N2C(=O)/C(=C\c3ccc(O)cc3O)N(C)C2=[Se])cc1 [Compound 24, 5-(2,4-dihydroxybenzylidene)-3-(4-ethylphenyl)-1-methyl-2-selenoxoimidazolidine-4-on] | 14 µM
CCc1ccc(N2C(=O)/C(=C\c3ccc(N4CCCCC4)cc3)N(C)C2=[Se])cc1 [Compound 28, 3-(4-ethylphenyl)-1-methyl-5-(4-(piperidine-1-yl)benzylidene)-2-selenoxoimidazolidine-4-on] | 11 µM
CCc1ccc(N2C(=O)/C(=C\c3ccc(Br)cc3)N(C)C2=[Se])cc1 [Compound 29, 5-(4-bromobenzylidene)-3-(4-ethylphenyl)-1-methyl-2-selenoxoimidazolidine-4-on] | 11 µM
CCc1ccc(N2C(=O)/C(=C\c3cccnc3)N(C)C2=[Se])cc1 [Compound 31, 3-(4-ethylphenyl)-1-methyl-5-(pyridine-3-ylmethylene)-2-selenoxoimidazolidine-4-on] | 30 µM
CN1C(=[Se])N(c2ccc(Cl)cc2)C(=O)/C1=C\c1ccc(O)cc1O [Compound 35, 3-(4-chlorophenyl)-5-(2,4-dihydroxybenzylidene)-1-methyl-2-selenoxoimidazolidine-4-on] | 31 µM
CN1C(=[Se])N(c2ccc(Cl)cc2)C(=O)/C1=C\c1cccc(O)c1O [Compound 36, 3-(4-chlorophenyl)-5-(2,3-dihydroxybenzylidene)-1-methyl-2-selenoxoimidazolidine-4-on] | 46 µM
CN1C(=[Se])N(c2ccc(Cl)cc2)C(=O)/C1=C\c1ccc(O)c(O)c1 [Compound 37, 3-(4-chlorophenyl)-5-(3,4-dihydroxybenzylidene)-1-methyl-2-selenoxoimidazolidine-4-on] | 20 µM
CN1C(=[Se])N(c2ccc(Cl)cc2)C(=O)/C1=C\c1cc(O)cc(O)c1 [Compound 38, 3-(4-chlorophenyl)-5-(3,5-dihydroxybenzylidene)-1-methyl-2-selenoxoimidazolidine-4-on] | 56 µM
CN1C(=[Se])N(c2ccc(Cl)cc2)C(=O)/C1=C\c1cccnc1 [Compound 39, 3-(4-chlorophenyl)-1-methyl-5-(pyridine-3-ylmethylene)-2-selenoxoimidazolidine-4-on] | 27 µM
CN1C(=[Se])N(c2cccc(Cl)c2)C(=O)/C1=C\c1cccc(O)c1O [Compound 40, 3-(3-chlorophenyl)-5-(2,3-dihydroxybenzylidene)-1-methyl-2-selenoxoimidazolidine-4-on] | 42 µM

SMILES | IC50
CN1C(=[Se])N(CCc2ccccc2)C(=O)/C1=C\c1ccc(O)cc1O [Compound 41, 5-(2,4-dihydroxybenzylidene)-1-methyl-3-phenethyl-2-selenoxoimidazolidine-4-on] | 9.8 µM
CN1C(=[Se])N(CCc2ccccc2)C(=O)/C1=C\c1ccc(N(C)C)cc1 [Compound 43, 5-(4-(dimethylamino)benzylidene)-1-methyl-3-phenethyl-2-selenoxoimidazolidine-4-on] | 23 µM
CN1C(=[Se])N(CCc2ccccc2)C(=O)/C1=C\c1ccc(N2CCOCC2)cc1 [Compound 52, 1-methyl-5-(4-morpholinobenzylidene)-3-phenethyl-2-selenoxoimidazolidine-4-on] | 3.5 µM
CN1C(=[Se])N(C2CCCCC2)C(=O)/C1=C\c1ccc(O)cc1O [Compound 55, 3-cyclohexyl-5-(2,4-dihydroxybenzylidene)-1-methyl-2-selenoxoimidazolidine-4-on] | 1 µM
CN1C(=[Se])N(C2CCCCC2)C(=O)/C1=C\c1cccc(O)c1O [Compound 56, 3-cyclohexyl-5-(2,3-dihydroxybenzylidene)-1-methyl-2-selenoxoimidazolidine-4-on] | 18 µM
CN1C(=[Se])N(C2CCCCC2)C(=O)/C1=C\c1ccc(N(C)C)cc1 [Compound 57] | 46 µM
CN1C(=[Se])N(C2CCCCC2)C(=O)/C1=C\c1cc(O)cc(O)c1 [Compound 58, 3-cyclohexyl-5-(3,5-dihydroxybenzylidene)-1-methyl-2-selenoxoimidazolidine-4-on] | 18 µM
CCCCCCN1C(=O)/C(=C\c2cccc(O)c2O)N(C)C1=[Se] [Compound 60, 5-(2,3-dihydroxybenzylidene)-3-hexyl-1-methyl-2-selenoxoimidazolidine-4-on] | 6 µM
CCCCCCN1C(=O)/C(=C\c2ccc(N(C)C)cc2)N(C)C1=[Se] [Compound 61, 5-(4-(dimethylamino)benzylidene)-3-hexyl-1-methyl-2-selenoxoimidazolidine-4-on] | 33 µM
CCCCCCN1C(=O)/C(=C\c2cc(O)cc(O)c2)N(C)C1=[Se] [Compound 62, 5-(3,5-dihydroxybenzylidene)-3-hexyl-1-methyl-2-selenoxoimidazolidine-4-on] | 5 µM
CCCCCCN1C(=O)/C(=C\c2ccc(N3CCOCC3)cc2)N(C)C1=[Se] [Compound 63, 3-hexyl-1-methyl-5-(4-morpholinobenzylidene)-2-selenoxoimidazolidine-4-on] | 0.5 µM
CCCCCCN1C(=O)/C(=C\c2ccc(NCCOCCF)cc2)N(C)C1=[Se] [Compound 67, 5-(4-((2-(2-fluoroethoxy)ethyl)amino)benzylidene)-3-hexyl-1-methyl-2-selenoxoimidazolidine-4-on] | 0.45 µM
CN1C(=[Se])N(C2CCCC2)C(=O)/C1=C\c1ccc(O)cc1O [Compound 68, 3-cyclopentyl-5-(2,4-dihydroxybenzylidene)-1-methyl-2-selenoxoimidazolidine-4-on] | 3 µM
CN1C(=[Se])N(C2CCCC2)C(=O)/C1=C\c1cccc(O)c1O [Compound 69, 3-cyclopentyl-5-(2,3-dihydroxybenzylidene)-1-methyl-2-selenoxoimidazolidine-4-on] | 14 µM
CN1C(=[Se])N(C2CCCC2)C(=O)/C1=C\c1ccc(N(C)C)cc1 [Compound 70, 3-cyclopentyl-5-(4-(dimethylamino)benzylidene)-1-methyl-2-selenoxoimidazolidine-4-on] | 26 µM
CN1C(=[Se])N(C2CCCC2)C(=O)/C1=C\c1ccc(O)c(O)c1 [Compound 71, 3-cyclopentyl-5-(3,4-dihydroxybenzylidene)-1-methyl-2-selenoxoimidazolidine-4-on] | 26 µM
CN1C(=[Se])N(c2ccc(F)cc2)C(=O)/C1=C\c1ccc(N(C)C)cc1 [Compound 75, 5-(4-(dimethylamino)benzylidene)-3-(4-fluorophenyl)-1-methyl-2-selenoxoimidazolidine-4-on] | 23 µM
CN1C(=[Se])N(CCCN2CCOCC2)C(=O)/C1=C\c1ccc(Cl)cc1 [Compound 85, 5-(4-chlorobenzylidene)-1-methyl-3-(3-morpholinopropyl)-2-selenoxoimidazolidine-4-on] | 5 µM
CN1C(=[Se])N(CCCCCCF)C(=O)/C1=C\c1cc(O)cc(O)c1 [Compound 88] | 18 µM
CN1C(=[Se])N(CCCCCF)C(=O)/C1=C\c1ccc(O)cc1O [Compound 89, 5-(2,4-dihydroxybenzylidene)-3-(5-fluoropentyl)-1-methyl-2-selenoxoimidazolidine-4-on] | 13 µM
